This experiment has as its target T1, hSCN3A sodium channels (Homo sapiens, UniProt Q9NY46).
T1 construct: expressed in transfected cells
As to the kind of experiment: hSCN3A electrophysiology, whole-cell patch-clamp or PatchXpress 7000, estimated IC-50 (Table B). Format: cell-based. The settings on record: read-out: SCN3A EIC-50. In a few lines: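 A 20 msec test pulse to 0 mV followed an 8 sec conditioning prepulse at each cell's measured V1/2. Room-temperature (22-24° C) recordings on HEK cells stably expressing the channel, conventional or PatchXpress.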

The mark [1] stands for this setting: estimated IC-50, hSCN3A cells, whole-cell patch-clamp or PatchXpress 7000.

Where two headings read alike, the source gives them in different places. A value given as a limit tells only on which side of the number the result lay.

T1 sequence (Q9NY46 whole entry): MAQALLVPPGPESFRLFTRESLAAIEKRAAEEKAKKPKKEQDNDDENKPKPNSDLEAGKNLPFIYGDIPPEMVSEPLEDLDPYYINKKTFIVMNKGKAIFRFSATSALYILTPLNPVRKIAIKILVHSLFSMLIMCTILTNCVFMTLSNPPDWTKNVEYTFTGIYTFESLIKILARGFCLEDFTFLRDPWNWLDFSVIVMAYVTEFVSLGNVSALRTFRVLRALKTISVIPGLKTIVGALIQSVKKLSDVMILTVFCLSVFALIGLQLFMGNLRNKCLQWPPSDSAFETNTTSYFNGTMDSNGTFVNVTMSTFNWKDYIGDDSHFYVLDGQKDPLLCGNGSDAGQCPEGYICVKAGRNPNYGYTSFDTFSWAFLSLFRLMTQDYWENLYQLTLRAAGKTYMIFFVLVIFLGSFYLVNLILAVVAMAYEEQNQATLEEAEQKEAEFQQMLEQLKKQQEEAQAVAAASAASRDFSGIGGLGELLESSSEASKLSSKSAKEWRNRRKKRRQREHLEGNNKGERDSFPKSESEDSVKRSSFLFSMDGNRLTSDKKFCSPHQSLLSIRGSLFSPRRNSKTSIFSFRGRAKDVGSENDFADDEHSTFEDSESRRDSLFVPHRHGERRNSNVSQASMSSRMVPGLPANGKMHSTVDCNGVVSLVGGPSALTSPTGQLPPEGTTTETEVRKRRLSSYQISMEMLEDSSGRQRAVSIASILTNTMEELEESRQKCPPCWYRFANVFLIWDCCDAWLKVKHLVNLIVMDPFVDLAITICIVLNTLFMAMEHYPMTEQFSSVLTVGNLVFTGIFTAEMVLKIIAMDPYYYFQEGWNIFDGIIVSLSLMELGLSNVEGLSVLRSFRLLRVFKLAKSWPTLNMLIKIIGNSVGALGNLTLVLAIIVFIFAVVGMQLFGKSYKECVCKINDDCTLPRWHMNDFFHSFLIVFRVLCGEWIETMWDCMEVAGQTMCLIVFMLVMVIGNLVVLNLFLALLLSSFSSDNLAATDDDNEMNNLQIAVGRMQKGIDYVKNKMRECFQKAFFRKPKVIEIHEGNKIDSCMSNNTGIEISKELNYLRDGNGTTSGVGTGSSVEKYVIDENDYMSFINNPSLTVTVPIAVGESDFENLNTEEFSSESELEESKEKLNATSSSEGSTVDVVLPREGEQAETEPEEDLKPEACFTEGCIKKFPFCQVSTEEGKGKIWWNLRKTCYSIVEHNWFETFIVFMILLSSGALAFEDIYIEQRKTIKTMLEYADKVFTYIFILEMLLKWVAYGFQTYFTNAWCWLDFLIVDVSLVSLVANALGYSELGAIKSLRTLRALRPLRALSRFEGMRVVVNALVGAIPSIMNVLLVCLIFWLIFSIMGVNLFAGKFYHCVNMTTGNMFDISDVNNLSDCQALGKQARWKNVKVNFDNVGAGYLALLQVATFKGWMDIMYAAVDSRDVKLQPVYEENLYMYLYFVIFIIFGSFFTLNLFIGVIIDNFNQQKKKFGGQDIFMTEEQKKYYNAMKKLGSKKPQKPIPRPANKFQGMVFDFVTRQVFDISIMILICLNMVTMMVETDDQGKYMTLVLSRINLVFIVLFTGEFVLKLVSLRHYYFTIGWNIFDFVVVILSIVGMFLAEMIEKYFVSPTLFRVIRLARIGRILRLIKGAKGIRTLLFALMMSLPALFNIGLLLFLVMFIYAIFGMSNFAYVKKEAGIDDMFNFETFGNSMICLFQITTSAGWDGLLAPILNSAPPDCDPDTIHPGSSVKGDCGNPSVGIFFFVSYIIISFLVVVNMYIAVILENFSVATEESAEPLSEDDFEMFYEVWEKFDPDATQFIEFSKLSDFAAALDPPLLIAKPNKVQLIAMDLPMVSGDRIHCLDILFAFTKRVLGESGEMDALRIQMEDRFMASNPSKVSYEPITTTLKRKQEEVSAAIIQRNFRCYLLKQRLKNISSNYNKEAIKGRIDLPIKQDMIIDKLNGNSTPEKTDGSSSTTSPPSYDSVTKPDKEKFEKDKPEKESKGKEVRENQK

As for `O=C(NCc1ccc(C(F)(F)F)cc1F)c1ccc(S(=O)(=O)Nc2ncc(Cl)s2)cc1` [Example 39, 4-{[(5-Chloro-1,3-thiazol-2-yl)amino]sulfonyl}-N-[2-fluoro-4-(trifluoromethyl)benzyl]benzamide], the IC50 under setting [1] is 120 nM.
Same read-out and setting: then `O=C(Nc1nccc2ccccc12)c1ccc(S(=O)(=O)Nc2nccs2)cc1` [Example 117, N-isoquinolin-1-yl-4-[(1,3-thiazol-2-ylamino)sulfonyl]benzamide], with 12700 nM.
`CC(O)(CN(C(=O)c1ccc(S(=O)(=O)Nc2nccs2)cc1)C1CCCCC1)c1ccccc1` (centres unmarked) [Example 257, N-cyclohexyl-N-(2-hydroxy-2-phenylpropyl)-4-[(1,3-thiazol-2-yl-amino)sulfonyl]benzamide]: the IC50 under setting [1] was greater than 1000 nM.
The same measure, in the same setting: for `O=C(c1ccc(S(=O)(=O)Nc2nccs2)cc1)N1CCC(c2ccccc2)C1` (centres unmarked) [Example 191, 4-[(3-Phenylpyrrolidin-1-yl)carbonyl]-N-1,3-thiazol-2-yl-benzenesulfonamide] the value was 2250 nM; for `O=C(NCc1ccc(OC(F)(F)F)c(F)c1)c1ccc(S(=O)(=O)Nc2nccs2)cc1F` [Example 328, 2-Fluoro-N-[3-fluoro-4-(trifluoromethoxy)benzyl]-4-[(1,3-thiazol-2-ylamino)sulfonyl] benzamide], 120 nM; for `O=C(NCc1cc(C(F)(F)F)ccc1Cl)c1ccc(S(=O)(=O)Nc2nccs2)cc1` [Example 120, N-[2-chloro-5-(trifluoromethyl)benzyl]-4-[(1,3-thiazol-2-ylamino)sulfonyl]benzamide], 500 nM.
As for `Cn1ccc(NS(=O)(=O)c2ccc(C(=O)NCc3ccc(C(F)(F)F)cc3)cc2)n1` [Example 2, 4-{[(1-Methyl-1H-pyrazol-3-yl)amino]sulfonyl}-N-[4-(trifluoromethyl)benzyl]benzamide], under setting [1], the IC50 was greater than 1000 nM.
Same read-out and setting: then `COc1cccc(CC2CCCN(C(=O)c3ccc(S(=O)(=O)Nc4nccs4)cc3)C2)c1` (centres unmarked) [Example 263, 4-{[3-(3-Methoxybenzyl)piperidin-1-yl]carbonyl}-N-1,3-thiazol-2-yl-benzenesulfonamide], with 1130 nM; and `O=C(NCc1ccc(Cl)c(Cl)c1)c1ccc(S(=O)(=O)Nc2nccs2)cc1` [Example 388, N-(3,4-dichlorobenzyl)-4-[(1,3-thiazol-2-ylamino)sulfonyl]benzamide], with 110 nM; and `O=C(NCc1ccc(F)c(OC(F)(F)F)c1)c1ccc(S(=O)(=O)Nc2ncc(Cl)s2)c(F)c1` [Example 313, 4-{[(5-Chloro-1,3-thiazol-2-yl)amino]sulfonyl}-3-fluoro-N-[4-fluoro-3-(trifluoromethoxy)benzyl]benzamide], with 160 nM.
For the molecule `O=C(NCc1ccc(C(F)(F)F)cc1)c1ccc(S(=O)(=O)Nc2ncc(Cl)s2)cc1F` [Example 352, 4-{[(5-Chloro-1,3-thiazol-2-yl)amino]sulfonyl}-2-fluoro-N-[4-(trifluoromethyl)benzyl]benzamide], the IC50 under setting [1] is 200 nM.
As to `O=C(NCc1cc(Cl)ccc1Cl)c1ccc(S(=O)(=O)Nc2nccs2)cc1` [Example 126, N-(2,5-dichlorobenzyl)-4-[(1,3-thiazol-2-ylamino)sulfonyl]benzamide], the IC50 under setting [1] is 290 nM.
In the case of `O=C(NCc1ccc(C(F)(F)F)c(F)c1)c1ccc(S(=O)(=O)Nc2ncc(Cl)s2)cc1F` [Example 356, 4-{[(5-Chloro-1,3-thiazol-2-yl)amino]sulfonyl}-2-fluoro-N-[3-fluoro-4-(trifluoromethyl)benzyl]benzamide], the IC50 under setting [1] was 210 nM.
On the same count and under the same terms, then `O=C(NCc1ccc(C(F)(F)F)c(F)c1)c1ccc(S(=O)(=O)Nc2ncc(Cl)s2)c(Cl)c1` [Example 366, 3-Chloro-4-{[(5-chloro-1,3-thiazol-2-yl)amino]sulfonyl}-N-[3-fluoro-4-(trifluoromethyl)benzyl] benzamide], with 730 nM; and `N#Cc1ccc(OC2CCCN(C(=O)c3ccc(S(=O)(=O)Nc4nccs4)cc3)C2)cc1F` (centres unmarked) [Example 193, 4-{[3-(4-Cyano-3-fluorophenoxy)piperidin-1-yl]carbonyl}-N-1,3-thiazol-2-yl-benzenesulfonamide], with 3270 nM.
On the same count and under the same terms, for `O=C(NCc1ccc(F)c(F)c1)c1ccc(S(=O)(=O)Nc2ncc(Cl)s2)cc1F` [Example 361, 4-{[(5-Chloro-1,3-thiazol-2-yl)amino]sulfonyl}-N-(3,4-difluorobenzyl)-2-fluorobenzamide] the value was 310 nM.
`O=C(c1ccc(S(=O)(=O)Nc2nccs2)cc1)N1CCC(O)(c2ccc(Cl)cc2)CC1` [Example 236, 4-{[4-(4-Chlorophenyl)-4-hydroxypiperidin-1-yl]carbonyl}-N-1,3-thiazol-2-ylbenzenesulfonamide]: the IC50 under setting [1] is 3110 nM.
Consider `O=C(NCc1ccc(C(F)(F)F)c(Cl)c1)c1ccc(S(=O)(=O)Nc2ncc(Cl)s2)cn1` [Example 346, 5-{[(5-Chloro-1,3-thiazol-2-yl)amino]sulfonyl}-N-[3-chloro-4-(trifluoromethyl)benzyl] pyridine-2-carboxamide], for which the IC50 is 70 nM.
`O=C(Nc1cnn(Cc2ccc(Cl)cc2)c1)c1ccc(S(=O)(=O)Nc2ncc(Cl)s2)c(F)c1` [Example 381, N-[1-(4-chlorobenzyl)-1H-pyrazol-4-yl]-4-{[(5-chloro-1,3-thiazol-2-yl)amino]sulfonyl}-3-fluorobenzamide]: the IC50 under setting [1] is 120 nM.
Regarding `O=C(NCc1ccc(C(F)(F)F)cc1)c1ccc(S(=O)(=O)Nc2ccn[nH]2)cc1` [Example 24, 4-[(1H-Pyrazol-5-ylamino)sulfonyl]-N-[4-(trifluoromethyl)benzyl]benzamide], the IC50 under setting [1] was greater than 10000 nM.
Regarding `O=C(NCc1ccc(OC(F)(F)F)c(F)c1)c1ccc(S(=O)(=O)Nc2ncns2)c(F)c1` [Example 318, 3-Fluoro-N-[3-fluoro-4-(trifluoromethoxy)benzyl]-4-[(1,2,4-thiadiazol-5-ylamino)sulfonyl]benzamide], under setting [1], the IC50 is 140 nM.
The same measure, in the same setting: for `O=C(NCc1ccc(-c2ccccc2)cc1)c1ccc(S(=O)(=O)Nc2nccs2)cc1` [Example 399, N-(biphenyl-4-ylmethyl)-4-[(1,3-thiazol-2-ylamino)sulfonyl] benzamide] the value was 30 nM; for `COc1ccccc1CC1CCCN(C(=O)c2ccc(S(=O)(=O)Nc3nccs3)cc2)C1` (centres unmarked) [Example 196, 4-{[3-(2-Methoxybenzyl)piperidin-1-yl]carbonyl}-N-1,3-thiazol-2-yl-benzenesulfonamide], greater than 1000 nM; for `Cc1cc(Cl)ccc1CNC(=O)c1ccc(S(=O)(=O)Nc2nccs2)cc1` [Example 414, N-(4-chloro-2-methylbenzyl)-4-[(1,3-thiazol-2-ylamino)sulfonyl] benzamide], 240 nM.
Same read-out and setting: for `O=C(NCc1ccc(OC(F)(F)F)c(F)c1)c1ccc(S(=O)(=O)Nc2ncc(Cl)s2)cc1Cl` [Example 337, 2-Chloro-4-{[(5-chloro-1,3-thiazol-2-yl)amino]sulfonyl}-N-[3-fluoro-4-(trifluoromethoxy)benzyl]benzamide] the value was 390 nM; for `O=C(NCc1ccccc1-c1ccccc1)c1ccc(S(=O)(=O)Nc2nccs2)cc1` [Example 415, N-(biphenyl-2-ylmethyl)-4-[(1,3-thiazol-2-ylamino)sulfonyl] benzamide], 380 nM.

The record behind these values is US8741934B2, “Inhibitors of ion channels” (Pfizer Limited, priority 2007, dated 2014).
